Assay results taken from patent US7531320B2, “Modulation of β-catenin/TCF-activated transcription” (priority 2003, dated 2009).

What was measured:
Assay type in all cases: cell-based, human
[1] = system: caspase-3/7 in HCT116 cells; assay: Caspase-3/7 activity assay, HCT116 cells; settings: 25 μM, 24 hours, compared to CCD18Co cells
Description: FIG. 6. • A. COMPOUND 1 arrests cells in G1. FACS analysis was performed on SW480 (lower panel) and HCT116 (upper panel) cells treated for 24 hours with either COMPOUND 1 (25 μM) (right) or control (0.5% DMSO (left). 5.5×10^6 cells were fixed and stained with propidium iodide (PI). G0/G1, S, and G2/M are indicated by arrows. • B. COMPOUND 1 selectively activates caspases in colon carcinoma cell lines. SW480 and HCT116 (left graph) cells (10^5) along with the normal colonocytes, CCD18Co (right graph) were treated with either control (0.5% DMSO) or COMPOUND 1 (25 μM). 24 hours post treatment, cells were lysed and the caspase-3/7 enzymatic activities were measured. Relative fluorescence units (RFU) were calculated by subtracting the unit values of the blank (control, without cells) from the treated samples (COMPOUND 1 or control) and plotted.
SW480, HCT116, and CCD18Co cells were plated at 10^5 cells per well (96-well plates) for 24 hours prior to treatment. 25 μM of COMPOUND 1 or control (0.5% DMSO) was added to each well. 24 hours post treatment, cells were lysed and caspase activity was measured using a caspase-3/7 activity kit (Apo-One Homogeneous caspase-3/7 assay, #G77905, Promega). Relative fluorescence units (RFU) were obtained by subtracting the unit values of the blank (control, without cells) from the experimental measured values. […]

[2] = system: fra-1; assay: Real Time RT-PCR in SW480 cells, fra-1; settings: 25 μM; for ΔCT fra-1: relative to β-actin
Description: (§1) The RNeasy Midi Kit (Qiagen) was used for RNA extraction and Real Time RT-PCR was performed according to the protocol provided with the SYBR Green PCR Master Mix Kit (Perkin Elmer Biosystems, Shelton, Conn.). The primers used for cyclin D1, axin2, hnkd, c-myc, c-jun, and fra-1 amplifications were: cyclin D1 forward primer:5′-[…]-CCTGCTG-3′ (SEQ ID NO: 32) reverse primer: 5′-[…]-3′ (SEQ ID NO: 33) leading to a product size of approximately 300 bp; axin2 forward primer: 5′-[…] GGAAA-CT-3′ (SEQ ID NO: 34) and reverse primer: 5′-[…]-GAGA-3′ (SEQ ID NO: 35); hnkd forward primer: 5′-[…] TTGCGT-3′ (SEQ ID NO: 36) and the reverse primer: 5′-[…] ACGT-3′ (SEQ ID NO: 37); c-myc forward primer: 5′-GAA-[…] CTGC-3′ (SEQ ID NO: 38) and reverse primer: 5′-[…]-G-3′ (SEQ ID NO: 39); c-jun forward primer: 5′-[…]-3′ (SEQ ID NO: 40) and reverse primer: 5′-[…]-3′ (SEQ ID NO: 41); fra-1 forward primer: 5′-ACC-[…]-[…]-3′ (SEQ ID NO: 42) and reverse primer: 5′-[…]-TT-3′ (SEQ ID NO: 43). β-actin was used for normalization. […]
(§2) 1 μg of mRNA, for each time point, was subjected to Real Time RT-PCR. Expression level of endogenous cyclin D1, c-myc, fibronectin, hnkd, axin2, c-jun, and BMP-4 were measured relative to β-actin. Quantitation of The ΔCycle of Threshold (CT) values was determined by subtracting the average values of each set by the corresponding average values obtained for β-actin. […]
(§3) The cyclin D1 gene is inappropriately expressed in many different tumor types, and is known to be a direct target of the Wnt/β-catenin pathway (Shtutman et al., “The cyclin D1 gene is a target of the beta-catenin/LEF-1 pathway,” Proc. Natl. Acad. Sci. USA 96:5522-27 (1999); Tetsu et al., “Beta-catenin regulates expression of cyclin D1 in colon carcinoma cells,” Nature 398:422-26 (1999)). […] Expression level of endogenous cyclin D1, c-myc, fibronectin, hnkd, axin2, c-jun, and BMP-4 were measured relative to β-actin. Quantitation of The ΔCycle of Threshold (CT) values was determined by subtracting the average values of each set by the corresponding average values obtained for β-actin. […]

[3] = system: hnkd; assay: Real Time RT-PCR in SW480 cells, hnkd; settings: 25 μM; for ΔCT hnkd: relative to β-actin
Description: as §1, §2, §3

O=C1C(Cc2ccc(O)cc2)N2C(=O)CCN(C(=O)NCc3ccccc3)C2CN1Cc1cccc2ccccc12 (stereo not shown) [COMPOUND 1]
Caspase-3/7 activity [1]: specifically and significantly activated | mRNA fra-1 (direction) [2]: ↑ | ΔCT fra-1 ([2]; 4 hours): −1.0 | ΔCT fra-1 ([2]; 8 hours): −1.4 | mRNA hnkd (direction) [3]: ↓ | ΔCT hnkd ([3]; 4 hours): 0.3 | ΔCT hnkd ([3]; 8 hours): 1.0
